Results reported in ChEMBL document CHEMBL4033632, “Design, synthesis and biological activity of novel donepezil derivatives bearing N-benzyl pyridinium moiety as potent and dual binding site acetylcholinesterase inhibitors” (Eur J Med Chem, 2017).
The source made the active and inactive calls. No cut-off for these calls is given here.

Legend:
Acetylcholinesterase [1] = target: Acetylcholinesterase (Electrophorus electricus, UniProt O42275); test: Inhibition of electric eel AChE using acetylthiocholine iodide as substrate pretreated for 6 mins followed by substrate addition measured up to 180 sec by Ellman's method
Sequence of Acetylcholinesterase (Electrophorus electricus, UniProt O42275) (O42275 whole entry): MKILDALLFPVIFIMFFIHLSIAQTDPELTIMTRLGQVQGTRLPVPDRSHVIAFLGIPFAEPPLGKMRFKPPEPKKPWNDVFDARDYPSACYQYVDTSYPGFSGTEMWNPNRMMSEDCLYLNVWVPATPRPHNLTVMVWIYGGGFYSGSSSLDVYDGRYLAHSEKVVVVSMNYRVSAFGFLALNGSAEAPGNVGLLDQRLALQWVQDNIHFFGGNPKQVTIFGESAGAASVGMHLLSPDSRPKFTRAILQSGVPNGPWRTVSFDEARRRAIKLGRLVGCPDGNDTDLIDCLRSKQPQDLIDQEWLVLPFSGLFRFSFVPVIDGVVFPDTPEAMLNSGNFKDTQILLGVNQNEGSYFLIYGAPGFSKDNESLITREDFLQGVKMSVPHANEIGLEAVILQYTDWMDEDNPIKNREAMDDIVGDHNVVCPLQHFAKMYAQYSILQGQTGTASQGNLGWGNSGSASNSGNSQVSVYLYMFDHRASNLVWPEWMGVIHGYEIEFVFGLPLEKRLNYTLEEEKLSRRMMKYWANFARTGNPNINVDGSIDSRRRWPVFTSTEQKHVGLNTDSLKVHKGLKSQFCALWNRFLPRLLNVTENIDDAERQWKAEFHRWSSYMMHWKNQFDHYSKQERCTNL

[2] = Antioxidant activity assessed as trolox equivalents of DPPH radical scavenging activity at 25 uM after 30 mins by UV-vis spectrophotometry; assay type: functional
[3] = target: Amyloid-beta precursor protein (Homo sapiens) (UniProt P05067); test: Inhibition of HFIP-pretreated amyloid beta (1 to 42) (unknown origin) self-induced aggregation at 20 uM incubated for 46 to 48 hrs by thioflavin-T fluorescence assay relative to control
Sequence of Amyloid-beta precursor protein (Homo sapiens) (P05067 whole entry): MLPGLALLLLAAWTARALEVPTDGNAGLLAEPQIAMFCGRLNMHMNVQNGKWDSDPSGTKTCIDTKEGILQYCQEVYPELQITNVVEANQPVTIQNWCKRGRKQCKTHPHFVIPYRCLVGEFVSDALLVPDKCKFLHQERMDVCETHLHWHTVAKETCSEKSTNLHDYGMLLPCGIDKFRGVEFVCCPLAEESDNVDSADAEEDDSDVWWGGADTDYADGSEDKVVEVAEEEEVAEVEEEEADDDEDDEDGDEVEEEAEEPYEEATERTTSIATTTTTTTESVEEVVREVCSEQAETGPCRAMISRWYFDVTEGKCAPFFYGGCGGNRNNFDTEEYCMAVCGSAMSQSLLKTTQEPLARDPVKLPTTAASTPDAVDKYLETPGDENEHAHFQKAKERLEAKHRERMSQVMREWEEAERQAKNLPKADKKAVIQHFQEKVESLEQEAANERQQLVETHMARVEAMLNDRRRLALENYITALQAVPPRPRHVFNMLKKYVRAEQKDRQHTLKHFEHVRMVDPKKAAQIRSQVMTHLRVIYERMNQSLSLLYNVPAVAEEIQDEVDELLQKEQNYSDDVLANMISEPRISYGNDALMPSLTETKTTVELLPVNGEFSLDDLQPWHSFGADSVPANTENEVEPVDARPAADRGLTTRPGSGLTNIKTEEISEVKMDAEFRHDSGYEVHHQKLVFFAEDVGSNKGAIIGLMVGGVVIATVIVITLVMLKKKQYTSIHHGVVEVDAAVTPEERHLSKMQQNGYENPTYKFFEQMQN

Acetylcholinesterase [4] = target: Acetylcholinesterase (Homo sapiens, UniProt P22303); test: Inhibition of human erythrocyte AChE using acetylthiocholine iodide as substrate pretreated for 6 mins followed by substrate addition measured up to 180 sec by Ellman's method
Sequence of Acetylcholinesterase (Homo sapiens, UniProt P22303) (P22303 whole entry): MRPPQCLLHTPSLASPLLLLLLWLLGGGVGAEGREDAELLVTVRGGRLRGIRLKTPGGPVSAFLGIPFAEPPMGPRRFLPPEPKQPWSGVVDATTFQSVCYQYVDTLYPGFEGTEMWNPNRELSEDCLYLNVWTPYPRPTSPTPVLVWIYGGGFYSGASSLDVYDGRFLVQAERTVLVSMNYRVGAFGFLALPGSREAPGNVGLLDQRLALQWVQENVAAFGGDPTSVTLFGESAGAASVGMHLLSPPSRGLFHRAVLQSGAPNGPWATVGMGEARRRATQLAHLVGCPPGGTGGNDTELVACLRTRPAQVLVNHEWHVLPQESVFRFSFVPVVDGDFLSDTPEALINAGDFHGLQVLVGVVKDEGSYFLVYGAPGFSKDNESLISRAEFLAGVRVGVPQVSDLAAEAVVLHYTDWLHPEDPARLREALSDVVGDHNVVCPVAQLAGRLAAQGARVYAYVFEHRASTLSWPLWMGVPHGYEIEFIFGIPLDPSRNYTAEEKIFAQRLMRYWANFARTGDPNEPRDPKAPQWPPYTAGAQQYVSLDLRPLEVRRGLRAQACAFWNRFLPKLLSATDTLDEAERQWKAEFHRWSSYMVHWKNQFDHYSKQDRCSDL

[5] = Selectivity index, ratio of IC50 for equine serum BuChE to IC50 for Electric eel AChE
PC-12 [6] = test: Neuroprotective activity against amyloid beta (1 to 42 residues) induced cell death in rat PC12 cells assessed as cell viability at 6.25 uM preincubated for 2 hrs followed by amyloid beta (1 to 42 residues) addition measured after 24 hrs by MTT assay (reference value: 50.5%); assay type: functional; settings: read-out: Activity
[7] = target: Amyloid-beta precursor protein (Homo sapiens) (UniProt P05067); test: Inhibition of amyloid beta (1 to 42) (unknown origin) self-induced aggregation assessed as reduction in amyloid beta fibrils by transmission electron microscopic analysis
physchem = settings: PAMPA
Description: Permeability of the compound at 200 uL after 16 hrs by PAMPA-BBB assay

PC-12 [8] = test: Neuroprotective activity against H2O2-induced oxidative damage in rat PC12 cells assessed as increase in cell viability at 6.25 uM after 24 hrs by MTT assay; assay type: functional, cell-based
PC-12 [9] = test: Neuroprotective activity against amyloid beta (1 to 42 residues) induced cell death in rat PC12 cells assessed as cell viability at 3.12 uM preincubated for 2 hrs followed by amyloid beta (1 to 42 residues) addition measured after 24 hrs by MTT assay (reference value: 50.5%); assay type: functional; settings: read-out: Activity
Mus musculus [10] = test: Toxicity in Kunming mouse assessed as effect on water consumption up to 2000 mg/kg, po measured up to 14 days post dose; assay type: organism-based; settings: in vivo, 336 h
PC-12 [11] = test: Neuroprotective activity against H2O2-induced oxidative damage in rat PC12 cells assessed as cell viability at 12.5 uM after 24 hrs by MTT assay relative to control; assay type: functional; settings: PC-12, 24 h, read-out: Activity
PC-12 [12] = test: Neuroprotective activity against amyloid beta (1 to 42 residues) induced cell death in rat PC12 cells assessed as cell viability at 1.56 uM preincubated for 2 hrs followed by amyloid beta (1 to 42 residues) addition measured after 24 hrs by MTT assay (reference value: 50.5%); assay type: functional; settings: read-out: Activity
[13] = target: Acetylcholinesterase (Electrophorus electricus) (UniProt O42275); test: Mixed-type inhibition of electric eel AChE at 1.25 to 5 nM using varying levels of acetylthiocholine iodide substrate by Lineweaver-Burk plot analysis
Sequence of Acetylcholinesterase (Electrophorus electricus) (O42275 24-633 limits assumed): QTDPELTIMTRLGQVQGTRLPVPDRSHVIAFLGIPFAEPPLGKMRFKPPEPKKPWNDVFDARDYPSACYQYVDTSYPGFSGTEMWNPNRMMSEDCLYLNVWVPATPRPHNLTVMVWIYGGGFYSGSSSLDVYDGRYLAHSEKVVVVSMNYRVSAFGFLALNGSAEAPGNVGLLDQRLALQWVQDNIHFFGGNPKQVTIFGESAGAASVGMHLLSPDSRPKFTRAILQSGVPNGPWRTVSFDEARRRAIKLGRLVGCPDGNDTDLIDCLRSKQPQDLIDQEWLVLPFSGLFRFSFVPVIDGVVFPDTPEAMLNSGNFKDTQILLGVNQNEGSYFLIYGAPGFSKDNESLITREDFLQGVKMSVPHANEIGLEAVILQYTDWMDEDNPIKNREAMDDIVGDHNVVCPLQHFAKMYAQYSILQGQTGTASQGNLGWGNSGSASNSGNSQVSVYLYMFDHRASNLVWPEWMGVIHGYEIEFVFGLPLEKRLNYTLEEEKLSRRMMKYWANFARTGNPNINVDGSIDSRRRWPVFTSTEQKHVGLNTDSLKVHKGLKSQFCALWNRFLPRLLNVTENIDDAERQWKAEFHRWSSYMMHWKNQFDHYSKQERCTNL

Mus musculus [14] = test: Toxicity in Kunming mouse assessed as mortality up to 2000 mg/kg, po measured up to 14 days post dose; assay type: organism-based; settings: in vivo, 336 h
PC-12 [15] = test: Neuroprotective activity against amyloid beta (1 to 42 residues) induced cell death in rat PC12 cells assessed as cell viability at 12.5 uM preincubated for 2 hrs followed by amyloid beta (1 to 42 residues) addition measured after 24 hrs by MTT assay (reference value: 50.5%); assay type: functional; settings: read-out: Activity
PC-12 [16] = test: Cytotoxicity against rat PC12 cells assessed as effect on cell viability at 6 to 100 uM after 24 hrs by MTT assay; assay type: cell-based; settings: pc-12, 24 h
Mus musculus [17] = test: Toxicity in Kunming mouse assessed as body weight loss up to 2000 mg/kg, po measured up to 14 days post dose; assay type: organism-based; settings: in vivo, 336 h
Mus musculus [18] = test: Toxicity in Kunming mouse assessed as effect on food consumption up to 2000 mg/kg, po measured up to 14 days post dose; assay type: organism-based; settings: in vivo, 336 h
Cholinesterase = Cholinesterase (Equus caballus, UniProt P81908); test: Inhibition of equine serum BuChE using s-butyrylthiocholine iodide as substrate preincubated for 6 mins followed by substrate addition measured up to 180 sec by Ellman's method
Sequence of Cholinesterase (P81908 whole entry): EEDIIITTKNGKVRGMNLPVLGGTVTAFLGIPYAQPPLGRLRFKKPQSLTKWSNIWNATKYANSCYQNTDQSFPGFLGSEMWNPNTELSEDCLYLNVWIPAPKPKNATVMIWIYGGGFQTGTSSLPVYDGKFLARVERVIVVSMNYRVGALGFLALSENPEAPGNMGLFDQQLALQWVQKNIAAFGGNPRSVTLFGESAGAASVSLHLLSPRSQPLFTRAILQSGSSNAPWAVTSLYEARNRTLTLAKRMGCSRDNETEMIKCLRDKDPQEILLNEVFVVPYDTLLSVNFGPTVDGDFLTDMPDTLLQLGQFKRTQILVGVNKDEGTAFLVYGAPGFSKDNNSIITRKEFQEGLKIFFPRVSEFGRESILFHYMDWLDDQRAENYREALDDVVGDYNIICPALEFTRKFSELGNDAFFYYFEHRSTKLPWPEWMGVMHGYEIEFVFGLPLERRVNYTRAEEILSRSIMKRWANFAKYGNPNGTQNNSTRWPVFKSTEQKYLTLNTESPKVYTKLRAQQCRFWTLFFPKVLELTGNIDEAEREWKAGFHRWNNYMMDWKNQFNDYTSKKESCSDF

SMILES | IC50 (Acetylcholinesterase [1]) | Activity [2] | inhibition [3] | IC50 (Acetylcholinesterase [4]) | Ratio IC50 [5] | also measured
COc1cc2c(cc1OC)C(=O)/C(=C/c1cc[n+](Cc3cccc(C)c3)cc1)C2 | 4.2 nM | 0.47 equiv | 42.6% | 4 nM | > 2380 | 
COc1cc2c(cc1OC)C(=O)/C(=C/c1cc[n+](Cc3cccc(F)c3)cc1)C2 | 3.4 nM | 0.47 equiv | 43.5% | 2.9 nM | > 2940 | 
COc1cc2c(cc1OC)C(=O)/C(=C/c1cc[n+](Cc3cccc(Br)c3)cc1)C2 | 4.4 nM | 0.32 equiv | 53.4% | 5.2 nM | > 2270 | 
COc1cc2c(cc1OC)C(=O)/C(=C/c1cc[n+](Cc3ccccc3F)cc1)C2.[Br-] |  | 0.54 equiv | 53.7% | 0.8 nM |  | viability at 6.25 µM (PC-12 [6]): 72.3%; inhibition [7]: Active; Papp at 16 h (physchem): 4.97 ×10⁻⁶ cm/s; Activity (PC-12 [8]): Active; viability at 3.12 µM (PC-12 [9]): 66.5%; Activity (Mus musculus [10]): Non-Toxic; viability at 12.5 µM (PC-12 [11]): 73.2%; viability at 1.56 µM (PC-12 [12]): 53.7%; inhibition [13]: Active; Activity (Mus musculus [14]): Non-Toxic; viability at 12.5 µM (PC-12 [15]): 76.3%; Activity (PC-12 [16]): Non-Toxic; Activity (Mus musculus [17]): Non-Toxic; Activity (Mus musculus [18]): Non-Toxic
COc1cc2c(cc1OC)C(=O)/C(=C/c1cc[n+](Cc3ccccc3Br)cc1)C2 | 2.9 nM | 0.37 equiv | 56.7% | 3.8 nM | > 3450 | 
COc1cc2c(cc1OC)C(=O)/C(=C/c1cc[n+](Cc3ccc([N+](=O)[O-])cc3)cc1)C2 | 74.6 nM | 0.49 equiv | 47.2% | 59.5 nM | > 130 | 
COc1cc2c(cc1OC)C(=O)/C(=C/c1cc[n+](Cc3ccccc3C)cc1)C2 | 5.1 nM | 0.41 equiv | 38.7% | 5.8 nM | > 1960 | 
C[C@]12CC[C@@H]3c4ccc(O)cc4CC[C@H]3[C@@H]1CC[C@@H]2O [ESTRADIOL] |  |  |  |  |  | Papp at 16 h (physchem): 11.3 ×10⁻⁶ cm/s
COc1cc2c(cc1OC)C(=O)/C(=C/c1cc[n+](Cc3ccc(F)cc3)cc1)C2 | 4.6 nM | 0.51 equiv | 47.6% | 4.1 nM | 1170 | IC50 (Cholinesterase): 5.4 µM
COc1cc2c(cc1OC)C(=O)/C(=C/c1cc[n+](Cc3cccc([N+](=O)[O-])c3)cc1)C2 | 5.9 nM | 0.33 equiv | 50.8% | 3.6 nM | > 1690 | 
COc1cc2c(cc1OC)C(=O)/C(=C/c1cc[n+](Cc3ccccc3)cc1)C2 | 2.9 nM | 0.51 equiv | 45.6% | 3.4 nM | > 3450 | 
COc1cc2c(cc1OC)C(=O)/C(=C/c1cc[n+](Cc3ccc(Br)cc3)cc1)C2 | 77.3 nM | 0.38 equiv | 50.2% | 69.7 nM | > 129 | 
COc1cc2c(cc1OC)C(=O)C(CC1CCN(Cc3ccccc3)CC1)C2 (stereo not given) |  | 0.63 equiv |  |  |  | 
COc1cc2c(cc1OC)C(=O)/C(=C/c1cc[n+](Cc3ccc(C)cc3)cc1)C2 | 25.6 nM | 0.39 equiv | 49.9% | 18.6 nM | > 391 | 
